The record followed here is PubChem BioAssay (NCI).

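Interpolation was linear, between the two tested concentrations surrounding the appropriate level; five concentrations were tested over 48 hours in 96-well plates. GI50 is the concentration that inhibits growth by half. TGI: total growth inhibition.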 A value given as a limit tells only on which side of the number the result lay.

Among the test systems are A498 renal; BT-549 breast; CAKI-1 renal; HCT-15 colon; K-562 leukemia; NCI-H522 lung; OVCAR-3 ovarian; SN12C renal; SW-620 colon; UACC-62 melanoma.
Common to all, as to assay: NCI tumour cell line growth inhibition, 48 h

For the molecule `N#Cc1c(-c2ccccc2)nc2c(c(-c3ccccc3)nn2-c2ccccc2)c1-c1ccc(O)cc1`, the GI50 with A498 renal was 1.66 µM; in the experiment on BT-549 breast, 2 µM; with CAKI-1 renal, 2.48 µM; with HCT-15 colon, 1.62 µM; in the experiment with K-562 leukemia, 2.68 µM; with NCI-H522 lung, 2.32 µM. The GI50 in the experiment on OVCAR-3 ovarian is 2 µM; in the experiment with SN12C renal, 1.64 µM; in the experiment with SW-620 colon it was 1.86 µM; with UACC-62 melanoma it was 1.7 µM. In addition, the TGI with A498 renal was 3.07 µM; in the experiment with BT-549 breast, 4.45 µM; with CAKI-1 renal it was 6.7 µM; in the experiment on HCT-15 colon it was 3.79 µM; with K-562 leukemia it was above 100 µM; with NCI-H522 lung it was 6.03 µM. For the same molecule, the TGI in the experiment on OVCAR-3 ovarian was determined as 4.45 µM; with SN12C renal, 3.04 µM; in the experiment on SW-620 colon, 3.53 µM; in the experiment on UACC-62 melanoma, 3.18 µM.
`NCCN1CCN(c2nccc(-c3ccc4ccccc4c3)n2)CC1`: the GI50 is 1.59 µM with A498 renal; 4.89 µM in the experiment with BT-549 breast; 1.55 µM in the experiment on CAKI-1 renal; 1.79 µM in the experiment on HCT-15 colon; 2.09 µM in the experiment on K-562 leukemia; 1.97 µM with NCI-H522 lung. Moreover, the GI50 with OVCAR-3 ovarian is 2.36 µM; in the experiment with SN12C renal it was 1.71 µM; with SW-620 colon it was 1.83 µM; with UACC-62 melanoma it was 1.87 µM. Besides, the TGI was 3.3 µM with A498 renal; 18.2 µM with BT-549 breast; 2.95 µM in the experiment with CAKI-1 renal; 3.54 µM in the experiment on HCT-15 colon; 4.09 µM with K-562 leukemia; 3.84 µM in the experiment on NCI-H522 lung. Moreover, the TGI turned out to be 5.45 µM in the experiment on OVCAR-3 ovarian, 3.81 µM in the experiment with SN12C renal, 3.61 µM in the experiment on SW-620 colon and 3.65 µM in the experiment with UACC-62 melanoma.
`CCN(Cc1c(F)cccc1F)c1ccc(CO)c(Cl)c1`: the GI50 with A498 renal is 0.0173 µM; in the experiment on BT-549 breast, 16.5 µM; with CAKI-1 renal, 0.167 µM; in the experiment with HCT-15 colon, 9.04 µM; in the experiment with K-562 leukemia, 0.209 µM; in the experiment with NCI-H522 lung, 15.1 µM. The GI50 in the experiment with OVCAR-3 ovarian was 0.0634 µM; in the experiment on SN12C renal it was 15.4 µM; in the experiment on SW-620 colon it was 0.139 µM; in the experiment with UACC-62 melanoma it was 0.0517 µM. In addition, the TGI amounted to 0.069 µM in the experiment with A498 renal; 41.4 µM in the experiment with BT-549 breast; 1.77 µM in the experiment with CAKI-1 renal; 48.8 µM in the experiment on HCT-15 colon; 28.2 µM in the experiment on K-562 leukemia; 38.8 µM in the experiment on NCI-H522 lung. Besides, the TGI is 0.317 µM in the experiment with OVCAR-3 ovarian, 58.5 µM with SN12C renal, above 90.4 µM in the experiment with SW-620 colon and 0.325 µM with UACC-62 melanoma.
Regarding `Cc1c(C(=O)NN)nnn1-c1ccnc2c(C(F)(F)F)cccc12`, the GI50 in the experiment on A498 renal, in the experiment with BT-549 breast, with CAKI-1 renal, in the experiment on HCT-15 colon, with K-562 leukemia and in the experiment on NCI-H522 lung was above 100 µM in each case. The GI50 in the experiment on OVCAR-3 ovarian is above 100 µM; with SN12C renal it was 76.5 µM; with SW-620 colon, above 100 µM; in the experiment on UACC-62 melanoma, above 100 µM. Besides, the TGI with A498 renal, in the experiment on BT-549 breast, with CAKI-1 renal, with HCT-15 colon, in the experiment on K-562 leukemia and in the experiment with NCI-H522 lung was above 100 µM in each case. Besides, the TGI in the experiment on OVCAR-3 ovarian, with SN12C renal, in the experiment on SW-620 colon and with UACC-62 melanoma was above 100 µM throughout.
Regarding `CCn1c(-c2nonc2N)nc2ccc(F)cc21`, the GI50 in the experiment on A498 renal is 13.6 µM; with BT-549 breast, above 25 µM; with CAKI-1 renal, above 25 µM; in the experiment with HCT-15 colon it was above 25 µM; with K-562 leukemia, above 25 µM; in the experiment on NCI-H522 lung it was above 25 µM. Besides, the GI50 with OVCAR-3 ovarian, in the experiment with SN12C renal, in the experiment with SW-620 colon and in the experiment on UACC-62 melanoma was above 25 µM throughout. The TGI with A498 renal, in the experiment with BT-549 breast, in the experiment on CAKI-1 renal, with HCT-15 colon, with K-562 leukemia and in the experiment on NCI-H522 lung was above 25 µM throughout. Further, the TGI in the experiment on OVCAR-3 ovarian, in the experiment on SN12C renal, with SW-620 colon and with UACC-62 melanoma was above 25 µM in each case.
`Cc1sc(C)c(-c2ccc(CO)o2)c1-c1ccc(CO)o1`: the GI50 with A498 renal was 0.0205 µM; in the experiment on BT-549 breast, above 71.7 µM; in the experiment on CAKI-1 renal, 1.16 µM; in the experiment with HCT-15 colon, above 76.6 µM; in the experiment on K-562 leukemia, 0.622 µM; with NCI-H522 lung, 41.9 µM. For the same molecule, the values for the GI50 with OVCAR-3 ovarian, with SN12C renal and with SW-620 colon were 0.183 µM, 96.6 µM and 0.499 µM, respectively. The TGI in the experiment on A498 renal was 0.0973 µM; in the experiment on BT-549 breast, above 100 µM; in the experiment on CAKI-1 renal it was above 100 µM; in the experiment with HCT-15 colon, above 100 µM; in the experiment with K-562 leukemia it was above 100 µM; with NCI-H522 lung, above 100 µM. Moreover, the TGI with OVCAR-3 ovarian is 0.706 µM; in the experiment on SN12C renal, above 100 µM; with SW-620 colon, above 100 µM.
As for `COc1cc(/C=C2\CC3C4CC=C5CC(N6CCCC6)CC[C@]5(C)C4CC[C@]3(C)C2OC(C)=O)ccc1OCCN1CCCC1` (some centres not stated), the GI50 with A498 renal is 1.52 µM; in the experiment with BT-549 breast, 16.6 µM; in the experiment on CAKI-1 renal it was 1.55 µM; in the experiment with HCT-15 colon, 1.52 µM; in the experiment on K-562 leukemia, 1.04 µM; with NCI-H522 lung, 1.69 µM. For the same molecule, the GI50 in the experiment on OVCAR-3 ovarian was 0.304 µM; with SN12C renal, 4.01 µM; in the experiment with UACC-62 melanoma, 1.79 µM. Also, the TGI in the experiment with A498 renal came to 3.26 µM; in the experiment on BT-549 breast, 31.4 µM; in the experiment on CAKI-1 renal it was 3.93 µM; in the experiment on HCT-15 colon, 3.4 µM; in the experiment with K-562 leukemia, 3.19 µM; in the experiment on NCI-H522 lung it was 3.25 µM. Also, the TGI in the experiment with OVCAR-3 ovarian is 2 µM; in the experiment on SN12C renal, 15.7 µM; in the experiment on UACC-62 melanoma, 3.45 µM.
Regarding `C=C1CC(COc2cc(Cl)nc(N)n2)C1`, the GI50 in the experiment with A498 renal was 28.4 µM; with BT-549 breast it was 20.6 µM; in the experiment on CAKI-1 renal, 22.8 µM; in the experiment with HCT-15 colon it was 33 µM; in the experiment with K-562 leukemia, 40 µM; with NCI-H522 lung, 27.6 µM. Further, the GI50 in the experiment with OVCAR-3 ovarian is 28.6 µM; in the experiment on SN12C renal, 44.1 µM; in the experiment with SW-620 colon, 45.7 µM. For the same molecule, the figures for the TGI in the experiment with A498 renal and with CAKI-1 renal were 96.8 µM and 89.3 µM, respectively.
